Series [1] deals with SMN2 minigene mRNA (SMN2-A minigene) in HEK293H cells. Briefly: SMN2 minigene mRNA splicing RT-qPCR assay in cultured cells. The class given is cell-based, human. To be noted: Homo sapiens, HEK293-H; concentration increasing full length SMN2 mRNA 1.5-fold relative to vehicle-treated cells; HEK293H cells with SMN2-A minigene, 24 hours, 7-point concentration data; read-out: EC1.5x for production of full length SMN2 mRNA. In short, it runs like this:
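EC1.5× values derive from a 24 h treatment of SMN2-A minigene HEK293H cells and GAPDH-normalized RT-qPCR of exon 7-included minigene mRNA relative to vehicle-treated cells.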
(In general: In qPCR the cycle at which signal appears reflects the starting amount.)

The test system of series [2] is Smn protein in SMA patient fibroblast cells (GM03813). Briefly: Smn protein assay in cultured cells (SMN HTRF). Type of series: cell-based, human. To be noted: SMA patient fibroblast cells, 48 hours; for EC1.5x for Smn protein expression: 7-point concentration curve, SMN HTRF, concentration producing 1.5 times Smn protein vs DMSO vehicle control; for maximum fold (Fold) increase of Smn protein: 7-point concentration data, fold relative to vehicle control. In short, it runs like this: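 Cells were cultured 72 h, seeded at 5,000/well and dosed with seven concentrations (3.16-fold apart) for 48 h. HTRF on lysates, read at 665 and 620 nm, gave blank-corrected ΔF values relative to DMSO. Potency is reported as EC1.5×, efficacy as maximal fold Smn increase.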
Background: Time-resolved FRET reads energy transfer from a long-lived donor to a nearby acceptor.

The values that follow come from patent US11753407B2, “Compounds for treating spinal muscular atrophy” (PTC Therapeutics, Inc., priority 2012, dated 2023).

`Cc1cn2nc(-c3cc(=O)n4cc(N5CCN[C@@H](C)C5)cc(C)c4n3)cc2c(C)n1` [Compound 561, 2-(4,6-dimethylpyrazolo[1,5-a]pyrazin-2-yl)-9-methyl-7-[(3S)-3-methylpiperazin-1-yl]-4H-pyrido[1,2-a]pyrimidin-4-one]: the melting point – broadly, the temperature, or range, at which the solid turns liquid – fell in the range of 210 to 219 °C. In series [1], the EC (1.5-fold increase) is less than 0.1 µM. For the same compound, in series [2], the “EC1.5x for Smn protein expression” value is “**** (an EC1.5x≤0.3 μM is indicated by four stars (****))”; the “maximum fold (Fold) increase of Smn protein” value (from here on “maximum fold (Fold) increase”) is “**** (a fold increase between >1.5 and ≤1.65 is indicated by four stars (****))”.

For the compound `Cc1cn2nc(-c3cc(=O)n4cc(N5C[C@@H](C)N[C@@H](C)C5)cc(C)c4n3)cc2c(C)n1` [Compound 562, 7-[(3R,5S)-3,5-dimethylpiperazin-1-yl]-2-(4,6-dimethylpyrazolo[1,5-a]pyrazin-2-yl)-9-methyl-4H-pyrido[1,2-a]pyrimidin-4-one], the melting point was in the range of 273 to 283 °C. Moreover, the EC (1.5-fold increase) in series [1] was in the range of 0.3 to 1 µM. The “maximum fold (Fold) increase” value in series [2] was “** (a fold increase between >1.2 and ≤1.35 is indicated by two stars (**))”.

`Cc1cn2nc(-c3cc(=O)n4cc(N5CCN(C)[C@@H](C)C5)cc(C)c4n3)cc2c(C)n1` [Compound 563, 7-[(3S)-3,4-dimethylpiperazin-1-yl]-2-(4,6-dimethylpyrazolo[1,5-a]pyrazin-2-yl)-9-methyl-4H-pyrido[1,2-a]pyrimidin-4-one] showed a melting point of 244 to 253 °C. Also, the EC (1.5-fold increase) in series [1] was 0.1 to 0.3 µM. Further, in series [2], the “EC1.5x for Smn protein expression” value is reported as “**** (an EC1.5x≤0.3 μM is indicated by four stars (****))” and the “maximum fold (Fold) increase” value is recorded as “***** (a fold increase >1.65 is indicated by five stars (*****))”.

Regarding `Cc1cn2nc(-c3cc(=O)n4cc(N5C[C@@H](C)N(C)[C@@H](C)C5)cc(C)c4n3)cc2c(C)n1` [Compound 564, 2-(4,6-dimethylpyrazolo[1,5-a]pyrazin-2-yl)-9-methyl-7-[(3R,5S)-3,4,5-trimethylpiperazin-1-yl]-4H-pyrido[1,2-a]pyrimidin-4-one], the melting point fell in the range of 297 to 310 °C. Besides, in series [1], the EC (1.5-fold increase) is 1 to 3 µM. In addition, the “maximum fold (Fold) increase” value in series [2] is reported as “* (A maximum fold increase of ≤1.2 is indicated by one star (*))”.

In turn, `Cc1cn2cc(-c3cc(=O)n4cc(C5=CCN(C(C)C)CC5)ccc4n3)ccc2n1` [Compound 565, 2-(2-methylimidazo[1,2-a]pyridin-6-yl)-7-[1-(propan-2-yl)-1,2,3,6-tetrahydropyridin-4-yl]-4H-pyrido[1,2-a]pyrimidin-4-one] yielded a melting point of 230 to 232 °C. In series [1], the EC (1.5-fold increase) was less than 0.1 µM. In series [2], the “EC1.5x for Smn protein expression” value is “*** (an EC1.5× between >0.3 μM and ≤1 μM is indicated by three stars (***))”; the “maximum fold (Fold) increase” value is “**** (a fold increase between >1.5 and ≤1.65 is indicated by four stars (****))”.

`Cn1cc2cc(-c3cc(=O)n4cc(C5CCNCC5)ncc4n3)ccc2n1` [Compound 566, 2-(2-methyl-2H-indazol-5-yl)-7-(piperidin-4-yl)-4H-pyrazino[1,2-a]pyrimidin-4-one]: the melting point lay in the range of 235 to 237 °C. In addition, the EC (1.5-fold increase) in series [1] was less than 0.1 µM. In addition, in series [2], the “EC1.5x for Smn protein expression” value is “**** (an EC1.5x≤0.3 μM is indicated by four stars (****))” and the “maximum fold (Fold) increase” value is “***** (a fold increase >1.65 is indicated by five stars (*****))”.

Take `CN1CCC(c2cn3c(=O)cc(-c4ccc5nn(C)cc5c4)nc3cn2)CC1` [Compound 567, 2-(2-methyl-2H-indazol-5-yl)-7-(1-methylpiperidin-4-yl)-4H-pyrazino[1,2-a]pyrimidin-4-one]: the melting point is 275 to 277 °C. Also, the EC (1.5-fold increase) in series [1] fell in the range of 0.1 to 0.3 µM. Besides, in series [2], the “EC1.5x for Smn protein expression” value is “*** (an EC1.5× between >0.3 μM and ≤1 μM is indicated by three stars (***))”; the “maximum fold (Fold) increase” value was “**** (a fold increase between >1.5 and ≤1.65 is indicated by four stars (****))”.

In the case of `CCN1CCC(c2cn3c(=O)cc(-c4ccc5nn(C)cc5c4)nc3cn2)CC1` [Compound 568, 7-(1-ethylpiperidin-4-yl)-2-(2-methyl-2H-indazol-5-yl)-4H-pyrazino[1,2-a]pyrimidin-4-one], the melting point is 198 to 200 °C. Further, the EC (1.5-fold increase) in series [1] was less than 0.1 µM. Further, in series [2], the “EC1.5x for Smn protein expression” value is reported as “**** (an EC1.5x≤0.3 μM is indicated by four stars (****))” and the “maximum fold (Fold) increase” value is on record as “***** (a fold increase >1.65 is indicated by five stars (*****))”.

The compound `Cn1cc2cc(-c3cc(=O)n4cc(C5CCN(CCO)CC5)ncc4n3)ccc2n1` [Compound 569, 7-[1-(2-hydroxyethyl)piperidin-4-yl]-2-(2-methyl-2H-indazol-5-yl)-4H-pyrazino[1,2-a]pyrimidin-4-one] gave a melting point of 230 to 232 °C. Moreover, the EC (1.5-fold increase) in series [1] was less than 0.1 µM. In series [2], the “EC1.5x for Smn protein expression” value was “**** (an EC1.5x≤0.3 μM is indicated by four stars (****))” and the “maximum fold (Fold) increase” value is recorded as “***** (a fold increase >1.65 is indicated by five stars (*****))”.

The compound `Cc1cn2nc(-c3cc(=O)n4cc(N5CCC(CN(C)C)CC5)ccc4n3)cc2c(C)n1` [Compound 570, 7-{4-[(dimethylamino)methyl]piperidin-1-yl}-2-(4,6-dimethylpyrazolo[1,5-a]pyrazin-2-yl)-4H-pyrido[1,2-a]pyrimidin-4-one] registered a melting point of 206 to 208 °C. The EC (1.5-fold increase) in series [1] lay within 0.3 to 1 µM. Further, in series [2], the “EC1.5x for Smn protein expression” value is “** (an EC1.5× between >1 μM and ≤3 μM is indicated by two stars (**))”; the “maximum fold (Fold) increase” value was “**** (a fold increase between >1.5 and ≤1.65 is indicated by four stars (****))”.

As for `Cc1cn2nc(-c3cc(=O)n4cc(N5CCC(CN6CCCC6)CC5)ccc4n3)cc2c(C)n1` [Compound 571, 2-(4,6-dimethylpyrazolo[1,5-a]pyrazin-2-yl)-7-[4-(pyrrolidin-1-ylmethyl)piperidin-1-yl]-4H-pyrido[1,2-a]pyrimidin-4-one], the melting point fell in the range of 177 to 180 °C. Also, the EC (1.5-fold increase) in series [1] fell in the range of 0.3 to 1 µM. Further, in series [2], the “EC1.5x for Smn protein expression” value is “** (an EC1.5× between >1 μM and ≤3 μM is indicated by two stars (**))”; the “maximum fold (Fold) increase” value was “**** (a fold increase between >1.5 and ≤1.65 is indicated by four stars (****))”.

As to `Cc1cn2nc(-c3cc(=O)n4cc(N5CCC(CN6CCCCC6)CC5)ccc4n3)cc2c(C)n1` [Compound 572, 2-(4,6-dimethylpyrazolo[1,5-a]pyrazin-2-yl)-7-[4-(piperidin-1-ylmethyl)piperidin-1-yl]-4H-pyrido[1,2-a]pyrimidin-4-one], the melting point lay in the range of 192 to 195 °C. Also, the EC (1.5-fold increase) in series [1] was 0.3 to 1 µM. In series [2], the “EC1.5x for Smn protein expression” value is “** (an EC1.5× between >1 μM and ≤3 μM is indicated by two stars (**))”; the “maximum fold (Fold) increase” value was “**** (a fold increase between >1.5 and ≤1.65 is indicated by four stars (****))”.
